The test concerns c-myc in 22RV-1 cells. Briefly: Human c-myc ELISA assay. In kind it is cell-based. Conditions: Homo sapiens; for Emax: 22Rv1, 18 h, read-out: Degradation of BRD4: Maximum inhibition (%) c-Myc ELISA in 22RV1 cells; for DC50: 22Rv1, read-out: Degradation of BRD4: DC50 (uM) c-Myc ELISA in 22RV1 cells. Put shortly: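 c-myc levels measured by ELISA in RIPA lysates of 22RV-1 cells, calibrated with a 333-0 pg/ml standard curve. Lysates came from cells exposed for 18 h to an 8-point, 1:3 dose series starting at 300 nM or 1 μM final in 0.1% DMSO. Suppression potency given as DC50.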
On the technique in general: An ELISA detects its analyte on a solid surface through an enzyme-linked reagent.

This passage reports Emax and DC50 results from patent publication US11554171B2, “Compounds and methods for the targeted degradation of bromodomain-containing proteins” (Arvinas Operations, Inc., priority 2015, dated 2023).

Each structure is given as a SMILES string.

For `Cc1ncsc1-c1ccc(CNC(=O)[C@@H]2C[C@@H](O)CN2C(=O)[C@H](C(C)C)n2cc(-c3cccc(O[C@@H](C)CNC(=O)C[C@@H]4N=C(c5ccc(Cl)cc5)c5c(sc(C)c5C)-n5c(C)nnc54)c3)cn2)cc1` [Example 199], the Emax amounted to 93% and the DC50 (commonly the concentration at which degradation of the target reaches its halfway point) was less than 0.01 µM.
On to `Cc1ncsc1-c1ccc(CNC(=O)[C@@H]2C[C@H](O)CN2C(=O)[C@@H](NC(=O)COCCCOCCNC(=O)C[C@@H]2N=C(c3ccc(Cl)cc3)c3c(sc(C)c3C)-n3c(C)nnc32)C(C)(C)C)cc1` [Example 73], for which the Emax turned out to be 21.4% and the 50% degradation concentration (DC50) is more than 1 µM.
`CC(=O)N[C@H](C(=O)N1C[C@H](O)C[C@H]1C(=O)NCc1ccc(-c2scnc2C)cc1OCCOCCOc1ccc(C2=NC(CC(=O)Nc3ccccc3)c3nnc(C)n3-c3sc(C)c(C)c32)cc1)C(C)(C)C` (stereo partly shown) [Example 149]: the Emax is 57.3% and the DC50 lay within 0.1 to 1 µM.
The like results for `Cc1ncsc1-c1ccc(CNC(=O)[C@@H]2C[C@@H](O)CN2C(=O)[C@@H](C(C)C)n2cc(-c3cccc(OCCNC(=O)C[C@@H]4N=C(c5ccc(Cl)cc5)c5c(sc(C)c5C)-n5c(C)nnc54)c3)cn2)cc1` [Example 162] were, in that order, 7.62% and more than 1 µM.
The like results for `Cc1ncsc1-c1ccc(CNC(=O)[C@@H]2C[C@@H](O)CN2C(=O)[C@@H](NC(=O)COCCCOCCCOc2ccc([C@H](C)NC(=O)C[C@@H]3N=C(c4ccc(Cl)cc4)c4c(sc(C)c4C)-n4c(C)nnc43)cc2)C(C)(C)C)cc1` [Example 25, (2S,4R)-1-[(2S)-2-{2-[3-(3-{4-[(1S)-1-{2-[(9S)-7-(4-chlorophenyl)-4,5,13-trimethyl-3-thia-1,8,11,12-tetraazatricyclo[8.3.0.0^2,^6]trideca-2(6),4,7,10,12-pentaen-9-yl]acetamido}ethyl]phenoxy}propoxy)propoxy]acetamido}-3,3-dimethylbutanoyl]-4-hydroxy-N-{[4-(4-methyl-1,3-thiazol-5-yl)phenyl]methyl}pyrrolidine-2-carboxamide] were, in that order, 100% and 0.01 to 0.1 µM.
The like results for `Cc1ncsc1-c1ccc([C@H](C)NC(=O)[C@@H]2C[C@@H](O)CN2C(=O)[C@@H](NC(=O)COCCCOC2CN(C(=O)C[C@@H]3N=C(c4ccc(Cl)cc4)c4c(sc(C)c4C)-n4c(C)nnc43)C2)C(C)(C)C)cc1` [Example 182] were, in that order, 100% and less than 0.01 µM.
`Cc1ncsc1-c1ccc([C@H](C)NC(=O)[C@@H]2C[C@@H](O)CN2C(=O)[C@@H](NC(=O)COc2cc(F)cc(O[C@H]3C[C@H](NC(=O)C[C@@H]4N=C(c5ccc(Cl)cc5)c5c(sc(C)c5C)-n5c(C)nnc54)C3)c2)C(C)(C)C)cc1` [Example 215]: the Emax came to 98% and the DC50 was less than 0.01 µM.
The like results for `Cc1sc2c(c1C)C(c1ccc(Cl)cc1)=NC(CC(=O)N[C@H]1C[C@H](Oc3ccc(CC(=O)N[C@H](C(=O)N4C[C@H](O)C[C@H]4C(=O)N[C@@H](C)c4ccc(C#N)cc4)C(C)(C)C)cc3)C1)c1nnc(C)n1-2` (stereo partly shown) [Example 279] were, in that order, 65.4% and 0.1 to 1 µM.
For the compound `Cc1ncsc1-c1ccc(CNC(=O)[C@@H]2C[C@@H](O)CN2C(=O)[C@@H](NC(=O)COCCCOCCOc2cc(NC(=O)C[C@@H]3N=C(c4ccc(Cl)cc4)c4c(sc(C)c4C)-n4c(C)nnc43)ccc2F)C(C)(C)C)cc1` [Example 130], the Emax turned out to be 99% and the DC50 is less than 0.01 µM.
The like results for `Cc1ncsc1-c1ccc(CNC(=O)[C@@H]2C[C@@H](O)CN2C(=O)[C@@H](NC(=O)COCCC[S+]([O-])CCNC(=O)C[C@@H]2N=C(c3ccc(Cl)cc3)c3c(sc(C)c3C)-n3c(C)nnc32)C(C)(C)C)cc1` (stereo partly shown) [Example 112] were, in that order, 26.8% and more than 1 µM.
Taken in the same sequence, the figures for `Cc1ncsc1-c1ccc(CNC(=O)[C@@H]2C[C@@H](O)CN2C(=O)[C@@H](NC(=O)CCN2CCN(CCCNC(=O)C[C@@H]3N=C(c4ccc(Cl)cc4)c4c(sc(C)c4C)-n4c(C)nnc43)CC2)C(C)(C)C)cc1` [Example 102] were 34.5% and more than 1 µM.
As for `Cc1sc2c(c1C)C(c1ccc(Cl)cc1)=N[C@@H](CC(=O)N[C@H]1C[C@@H](Oc3ccc(OCC(=O)N[C@H](C(=O)N4C[C@H](O)C[C@H]4C(=O)N[C@@H](C)c4ccc(-c5nccn5C)cc4)C(C)(C)C)cn3)C1)c1nnc(C)n1-2` [Example 260], the Emax stood at 13% and the DC50 is more than 1 µM.
The like results for `Cc1sc2c(c1C)C(c1ccc(Cl)cc1)=N[C@@H](CC(=O)N[C@H]1C[C@@H](Oc3ccc4oc(C(=O)N[C@H](C(=O)N5C[C@H](O)C[C@H]5C(=O)N[C@@H](C)c5ccc(-c6nccn6C)cc5)C(C)(C)C)cc4c3)C1)c1nnc(C)n1-2` [Example 262] were, in that order, 55.5% and 0.1 to 1 µM.
Taken in the same sequence, the figures for `Cc1ncsc1-c1ccc([C@H](C)NC(=O)[C@@H]2C[C@@H](O)CN2C(=O)[C@@H](C(C)C)n2cc(-c3cc(F)cc(O[C@H]4C[C@H](NC(=O)C[C@@H]5N=C(c6ccc(Cl)cc6)c6c(sc(C)c6C)-n6c(C)nnc65)C4)c3)cn2)cc1` [Example 253] were 33.4% and more than 1 µM.
The like results for `Cc1ncsc1-c1ccc(CNC(=O)[C@@H]2C[C@@H](O)CN2C(=O)[C@@H](NC(=O)COCCOCCOCCOCCNC(=O)C[C@@H]2N=C(c3ccc(Cl)cc3)c3c(sc(C)c3C)-n3c(C)nnc32)C(C)(C)C)cc1` [Example 38] were, in that order, 94% and 0.01 to 0.1 µM.
Regarding `Cc1sc2c(c1C)C(c1ccc(Cl)cc1)=N[C@@H](CC(=O)N[C@H]1C[C@H](OC3CCN(CC(=O)N[C@H](C(=O)N4C[C@H](O)C[C@H]4C(=O)N[C@@H](C)c4ccc(-c5scnc5CO)cc4)C(C)(C)C)CC3)C1)c1nnc(C)n1-2` [Example 346], the Emax is 90% and the 50% degradation concentration (DC50) was in the range of 0.01 to 0.1 µM.
Regarding `Cc1ncsc1-c1ccc(CNC(=O)[C@@H]2C[C@H](O)CN2C(=O)[C@@H](NC(=O)COCCCOCCCOc2ccc(NC(=O)C[C@@H]3N=C(c4ccc(Cl)cc4)c4c(sc(C)c4C)-n4c(C)nnc43)cc2)C(C)(C)C)cc1` [Example 18], the Emax came out at 39% and the 50% degradation concentration (DC50) was more than 1 µM.
As for `Cc1ncsc1-c1ccc([C@H](C)NC(=O)[C@@H]2C[C@@H](O)CN2C(=O)[C@@H](NC(=O)CN2CCC(O[C@H]3C[C@@H](NC(=O)C[C@@H]4N=C(c5ccc(Cl)cc5)c5c(sc(C)c5C)-n5c(C)nnc54)C3)CC2)C(C)(C)C)cc1` [Example 257, (2S,4R)-1-[(2S)-3,3-dimethyl-2-(2-{4-[(1,3-cis)-3-{2-[(9S)-7-(4-chlorophenyl)-4,5,13-trimethyl-3-thia-1,8,11,12-tetraazatricyclo[8.3.0.0^2,^6]trideca-2(6),4,7,10,12-pentaen-9-yl]acetamido}cyclobutoxy]piperidin-1-yl}acetamido)butanoyl]-4-hydroxy-N-[(1S)-1-[4-(4-methyl-1,3-thiazol-5-yl)phenyl]ethyl]pyrrolidine-2-carboxamide], the Emax stood at 87% and the 50% degradation concentration (DC50) fell in the range of 0.01 to 0.1 µM.
Taken in the same sequence, the figures for `Cc1ncsc1-c1ccc([C@H](C)NC(=O)[C@@H]2C[C@@H](O)CN2C(=O)[C@H](C(C)C)n2cc(-c3ccnc(O[C@H]4C[C@H](NC(=O)C[C@@H]5N=C(c6ccc(Cl)cc6)c6c(sc(C)c6C)-n6c(C)nnc65)C4)c3)cn2)cc1` [Example 228, (2S,4R)-4-hydroxy-N-[(1S)-1-[4-(4-methyl-1,3-thiazol-5-yl)phenyl]ethyl]-1-[(2S)-3-methyl-2-(4-{2-[(1r,3r)-3-{2-[(9S)-7-(4-chlorophenyl)-4,5,13-trimethyl-3-thia-1,8,11,12-tetraazatricyclo[8.3.0.0^2,^6]trideca-2(6),4,7,10,12-pentaen-9-yl]acetamido}cyclobutoxy]pyridin-4-yl}-1H-pyrazol-1-yl)butanoyl]pyrrolidine-2-carboxamide] were 100% and less than 0.01 µM.
Take `Cc1ncsc1-c1ccc([C@H](C)NC(=O)[C@@H]2C[C@@H](O)CN2C(=O)[C@@H](C(C)C)n2cc(-c3ccc(N4CCN(C(=O)C[C@@H]5N=C(c6ccc(Cl)cc6)c6c(sc(C)c6C)-n6c(C)nnc65)CC4)nc3)cn2)cc1` [Example 321]: the Emax is 56% and the 50% degradation concentration (DC50) lay in the range of 0.1 to 1 µM.
The like results for `Cc1ncsc1-c1ccc(CNC(=O)C2C[C@@H](O)CN2C(=O)[C@@H](NC(=O)c2cn3cc(OCCNC(=O)C[C@@H]4N=C(c5ccc(Cl)cc5)c5c(sc(C)c5C)-n5c(C)nnc54)ccc3n2)C(C)(C)C)cc1` (stereo partly shown) [Example 96] were, in that order, 67.9% and 0.1 to 1 µM.
Regarding `Cc1ncsc1-c1ccc([C@H](C)NC(=O)[C@@H]2C[C@@H](O)CN2C(=O)[C@@H](C(C)C)n2cc(-c3ccnc(O[C@H]4C[C@H](NC(=O)C[C@@H]5N=C(c6ccc(Cl)cc6)c6c(sc(C)c6C)-n6c(C)nnc65)C4)c3)cn2)cc1` [Example 220], the Emax turned out to be 66.4% and the 50% degradation concentration (DC50) lay within 0.1 to 1 µM.
Taken in the same sequence, the figures for `Cc1ncsc1-c1ccc([C@H](C)NC(=O)[C@@H]2C[C@@H](O)CN2C(=O)[C@@H](NC(=O)COc2ccc(N3CC(NC(=O)C[C@@H]4N=C(c5ccc(Cl)cc5)c5c(sc(C)c5C)-n5c(C)nnc54)C3)nc2)C(C)(C)C)cc1` [Example 251, (2S,4R)-1-[(2S)-2-(2-{[6-(3-{2-[(9S)-7-(4-chlorophenyl)-4,5,13-trimethyl-3-thia-1,8,11,12-tetraazatricyclo[8.3.0.0^2,^6]trideca-2(6),4,7,10,12-pentaen-9-yl]acetamido}azetidin-1-yl)pyridin-3-yl]oxy}acetamido)-3,3-dimethylbutanoyl]-4-hydroxy-N-[(1S)-1-[4-(4-methyl-1,3-thiazol-5-yl)phenyl]ethyl]pyrrolidine-2-carboxamide] were 92.3% and less than 0.01 µM.
